Measurements from patent US20180235860A1, “USE OF DIETHANOLAMMONIUM DERIVATIVES AS SKIN MOISTURIZER” (L'OREAL, priority 2015, published 2018).

System: isolated stratum corneum (SC)
Test: Moisturizing potential on isolated stratum corneum by measurement with a Corneometer (dielectric capacitance)
Conditions: for Mean DHCMi corr. active agent: vehicle-corrected; for Dielectric capacitance of the stratum corneum / moisturizing effect in comparison with glycerol at the same concentration: 5% by weight, result in words
Description: B): Evaluation of the Moisturizing Potential on Isolated Stratum Corneum by Measurement with a Corneometer
A test was performed to evaluate the moisturizing potential of the compounds of the invention formulated in an aqueous solution to an amount of 5% by weight relative to the total weight of the composition.
The technique makes it possible to measure the dielectric capacitance of stratum corneum (SC), which depends on the mean dielectric permittivity value of the tissue. The dielectric permittivity varies greatly with the amount of water contained in the SC.
The SC samples are conditioned at 75% relative humidity and at 25° C. before/during the measurements and the treatment. The capacitance measurement is performed using a Corneometer™ (Courage & Khazaka, Germany).
The test compound, compound 2 according to the invention or a moisturizing active agent such as glycerol, is dissolved in a water/n-propanol mixture (80/20) and the solution is deposited onto the SC at a rate of 10 μl/cm^2 followed by air-drying for a total duration of 1 hour 30 minutes.
Measurement is taken at T0, before the treatment, and a measurement Ttreat is taken after total drying of the treatment.
Each treatment is systematically compared with its control (vehicle) and with its T0.
Using at least two different batches of SC, four to five SC samples are measured per treatment.
The variation in the corneometer signal (HCM) after treatment is calculated first for each SC sample: DHCMi=HCMi(Ttreat)−HCMi(T0). The mean of the DHCMi(vehicle) variations is then calculated for the control samples (treated with the vehicle); this mean value is subtracted from all the DHCMi(active agent) variations to correct the systematic bias.
The following is measured for each sample i: • For the vehicle (control): DHCMi(veh)=HCMiveh(Ttreat)−HCMiveh(T0) • For the active agent: DHCMiactive agent=HCMiactive agent(Ttreat)−HCMiactive agent(T0)
To correct the systematic bias associated with the vehicle, the corrected value DHCMicorr. active agent is considered for the active agent according to: DHCMicorr. active agent−DHCMiactive agent−M
in which M corresponds to the mean of the DHCMi(veh) variations observed on the n control samples:
The mean DHCMi corr. active agent values, and also the associated standard deviations that were obtained, are reported in the table below for compound 2 tested at 5%, in comparison with glycerol at 5%: […]

[1] = 5% by weight in water/n-propanol mixture (80/20), 10 μl/cm2 on SC, 75% RH, 25° C., table for compound 2 vs glycerol
[2] = 5% by weight in water/n-propanol mixture, table for compounds 13 and 14 vs glycerol

Row | SMILES | Mean DHCMi corr. active agent [1] | Dielectric capacitance of the stratum corneum / moisturizing effect in comparison with glycerol at the same concentration | Mean DHCMi corr. active agent [2]
1 | C[N+](C)(CCO)CCO.[Cl-] [Compound 2] | 25.9 | much better | –
2 | CC(O)C(=O)[O-].C[N+](C)(CCO)CCO [Compound 13] | – | better | 14
3 | OCC(O)CO [Glycerol, glycerol, reference compound] | 13.8 | – | 11
